This note sets out measurements from patent US10912780B2, “Heterocyclic compounds useful as anti-bacterial agents and method for production thereof” (Bugworks Research, Inc., priority 2017, dated 2021).

Converted amounts (≈) assume the structure as drawn.

As a reminder, the MIC50 is an inhibitory concentration at the 50% level, which refers to growth in some studies and to a panel of isolates in others. A low value points to greater potency. In general, MIC90 refers to an inhibitory concentration at the 90% level, which refers to growth in some studies and to a panel of isolates in others. A high value points to weaker potency. As usually defined, the IC50 is the concentration that gives 50% inhibition. The low end stands for higher potency, the high end for lower potency.

The subject of data set [1] is A. baumannii clinical strains. The data set can be described thus: Antibacterial susceptibility studies (MIC50 and MIC90) with clinical strains, CLSI guidelines. The format is cell-based.
For data set [2], the system named is Staphylococcus aureus ATCC 29213. The data set can be described thus: Minimum Inhibitory Concentration (MIC) in LB media. The format is cell-based. The following applies: Staphylococcus aureus, ATCC29213, read-out: Minimum Inhibitory Concentration S. aureus ATCC 29213. In outline: (§1)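 Broth microdilution in LB using cultures grown to OD600 0.8 to 1; compounds tested as twofold dilutions from a 4 mg/ml DMSO stock. Plates incubated overnight at 37° C., growth read by absorbance at 600 nm to give MIC.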

Data set [3] deals with Escherichia coli ATCC 25922. Briefly: Minimum Inhibitory Concentration (MIC) in LB media. The format is cell-based. The following applies: Escherichia coli, ATCC25922, read-out: Minimum Inhibitory Concentration E. coli ATCC 25922. The essentials: as §1
For data set [4], the system named is Pseudomonas aeruginosa ATCC 27853. Briefly: Minimum Inhibitory Concentration (MIC) in LB media. The following applies: Pseudomonas aeruginosa, ATCC27853, read-out: Minimum Inhibitory Concentration P. aeruginosa ATCC 27853. The format is cell-based. In outline:
as §1

Data set [5] concerns Klebsiella pneumoniae ATCC 13883. The data set can be described thus: Minimum Inhibitory Concentration (MIC) in LB media. The format is cell-based. The following applies: Klebsiella pneumoniae, ATCC13883, read-out: Minimum Inhibitory Concentration K. pneumoniae ATCC 13883. In outline: as §1
Data set [6] concerns Enterococcus faecalis ATCC 29212. The data set can be described thus: Minimum Inhibitory Concentration (MIC) in LB media. The format is cell-based. The following applies: Enterococcus faecalis, ATCC29212, read-out: Minimum Inhibitory Concentration E. faecalis ATCC 29212. The essentials:
as §1

Data set [7] can be described thus: Stability of IV formulation at room temperature. The format is physicochemical. The following applies: IV formulation in 10% L-ascorbic acid, pH~4. Here is the method: Procedure: Weighed appropriate amount of the Example 15 to be tested and dissolved in 1 ml of the 10% ascorbic acid solution. (Vortex for a few seconds if the compound doesn't dissolve instantly). Sonicated the compound solution at room temperature for 5 minutes using a bath sonicator to obtain a visually clear solution. The above prepared solution was pH adjusted to pH˜4 with 1N NaOH solution (w/v) with sonication (final Formulation pH˜4).

A short description of data set [8]: IV formulation solubility. The format is physicochemical. The following applies: 10% L-ascorbic acid in MilliQ water (IV formulation), aqueous with cosolvent or surfactant or cyclodextrin, IV formulation: 10% L-Ascorbic acid, 1N NaOH for pH adjustment, read-out: Solubility in 10% L-ascorbic acid in fresh MilliQ water(v/v), Final. Here is the method: Procedure: Weighed appropriate amount of the Example 15 to be tested and dissolved in 1 ml of the 10% ascorbic acid solution. (Vortex for a few seconds if the compound doesn't dissolve instantly). Sonicated the compound solution at room temperature for 5 minutes using a bath sonicator to obtain a visually clear solution. […]

The target of data set [9] is T1, human ether a go-go related gene (hERG) K+ channel (Homo sapiens, UniProt Q12809).
T1 construct: Chinese Hamster Ovary cell line stably expressing the full-length hERG potassium channel; expressed in transfected cells
T1 sequence (Q12809 whole entry): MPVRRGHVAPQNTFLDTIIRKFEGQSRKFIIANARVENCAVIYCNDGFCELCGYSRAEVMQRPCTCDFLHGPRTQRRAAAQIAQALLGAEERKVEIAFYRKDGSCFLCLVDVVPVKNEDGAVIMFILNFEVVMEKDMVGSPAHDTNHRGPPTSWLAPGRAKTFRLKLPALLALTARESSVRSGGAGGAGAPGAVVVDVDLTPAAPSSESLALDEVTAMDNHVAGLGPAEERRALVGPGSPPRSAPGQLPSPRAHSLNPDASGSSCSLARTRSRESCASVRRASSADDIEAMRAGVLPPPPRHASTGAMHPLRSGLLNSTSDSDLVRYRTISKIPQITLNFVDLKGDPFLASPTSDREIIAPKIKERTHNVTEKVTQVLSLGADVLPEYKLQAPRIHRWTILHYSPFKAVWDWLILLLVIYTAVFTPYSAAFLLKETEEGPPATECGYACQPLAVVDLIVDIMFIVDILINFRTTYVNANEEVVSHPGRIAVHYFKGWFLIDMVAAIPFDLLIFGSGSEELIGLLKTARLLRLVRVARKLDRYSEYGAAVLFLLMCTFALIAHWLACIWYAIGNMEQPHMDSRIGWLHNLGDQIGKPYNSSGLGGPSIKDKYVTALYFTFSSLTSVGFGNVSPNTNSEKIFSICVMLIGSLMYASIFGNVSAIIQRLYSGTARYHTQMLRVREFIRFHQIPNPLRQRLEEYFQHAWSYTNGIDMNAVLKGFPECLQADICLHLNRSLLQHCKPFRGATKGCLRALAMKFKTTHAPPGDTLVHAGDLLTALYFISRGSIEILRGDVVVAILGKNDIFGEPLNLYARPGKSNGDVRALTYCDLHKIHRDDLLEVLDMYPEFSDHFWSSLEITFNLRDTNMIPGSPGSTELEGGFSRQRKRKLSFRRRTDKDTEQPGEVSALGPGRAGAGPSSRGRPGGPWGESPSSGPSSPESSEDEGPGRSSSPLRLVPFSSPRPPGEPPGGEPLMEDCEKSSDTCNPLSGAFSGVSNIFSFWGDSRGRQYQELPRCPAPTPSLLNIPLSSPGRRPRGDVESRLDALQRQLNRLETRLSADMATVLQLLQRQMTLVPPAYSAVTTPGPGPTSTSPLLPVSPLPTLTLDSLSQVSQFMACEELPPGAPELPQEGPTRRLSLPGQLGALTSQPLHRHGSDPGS
Briefly: hERG inhibition assay, QPatch HTX automated electrophysiology. The following applies: CHO cell line stably expressing hERG, whole-cell patch clamp, maximum test concentration 300 μM. The format is cell-based. On the technique in general: Block of hERG is tested as a sign of cardiac risk.
Experimental: The compounds were tested for inhibition of the human ether a go-go related gene (hERG) K+ channel using QPatch HTX automated electrophysiology.
Compounds were solubilised to 100 mM in DMSO before dilution in HBPS to 300 μM.
Electrophysiological recordings were made from a Chinese Hamster Ovary cell line stably expressing the full-length hERG potassium channel. Single cell ionic currents were measured in whole-cell patch clamp configuration at room temperature (21-23° C.) using the QPatch HTX platform (Sophion). Intracellular solution contained (mM): 120 KF, 20 KCl, 10 EGTA, 10 HEPES and was buffered to pH 7.3. […] Cells were clamped at a holding potential of −80 mV. […] This sweep was repeated 10 times at 10 s intervals. hERG currents were measured from the tail step and referenced to the holding current. Compounds were then incubated for 2 minutes prior to a second measurement of ion channel current using an identical pulse train.

In the case of `Cn1c(=O)ccc2ccc(F)c(CCNC[C@H]3CN(c4cnc5c(n4)NC(=O)CO5)C(=O)O3)c21` [Example 15, (S)-6-(5-(((2-(7-fluoro-1-methyl-2-oxo-1,2-dihydroquinolin-8-yl)ethyl)amino)methyl)-2-oxooxazolidin-3-yl)-2H-pyrazino[2,3-b][1,4]oxazin-3(4H)-one], the MIC ATCC19606 in data set [1] (A. baumannii reference strain ATCC19606, no unit in this line) amounted to 0.06 µg/mL (≈ 0.128 µM). Moreover, the MIC50 in data set [1] (Acinetobacter baumannii) came out at 0.06 µg/mL (≈ 0.128 µM). The molecule also yielded an MIC90 in data set [1] (Acinetobacter baumannii) of 0.125 µg/mL (≈ 0.267 µM). In [1] (lowest MIC among A. baumannii clinical strains (169 strains; Example 15: 132), no unit in this line), the Minimum turned out to be 0.03. Besides, the MIC in data set [2] was no more than 0.015 µg/mL; in data set [3] it was 0.03 µg/mL (≈ 0.064 µM); in data set [4] it was 0.25 µg/mL (≈ 0.534 µM); in data set [5], 0.03 µg/mL (≈ 0.064 µM); in [6], 0.06 µg/mL (≈ 0.128 µM). Besides, in data set [7], the “IV formulation stable at room temperature” value was “more than 24 hours”. Besides, the solubility at 5 min in data set [8] came out at 25 mg/mL (≈ 53400 µM). In data set [9], inhibition was half-maximal at 131 µM (IC50).
